Active and inactive are the calls of the source. The rule behind the calls is not given here.

By inhibition is commonly meant the change of the read-out against control, counted positive when it falls.

Assay type in all cases: protein assay
Experiment [1] deals with T1, Mushroom tyrosinase (Agaricus bisporus) (UniProt O42713+Q00024+C7FF04+C7FF05). In words: Inhibition of mushroom Tyrosinase using L-DOPA as substrate assessed as change in absorbance at 50 to 100 uM at 305 nm by spectrophotometric analysis. As to conditions: dose 50-100 µM.
The target of experiment [2] is T1, Mushroom tyrosinase (Agaricus bisporus). The experiment can be described thus: Inhibition of mushroom Tyrosinase using L-DOPA as substrate assessed as reduction in oxygen consumption.
Experiment [3] shares this target. In words: Inhibition of mushroom Tyrosinase using L-DOPA as substrate assessed as change in absorbance at 50 to 100 uM by spectrophotometric analysis. Particulars: dose 50-100 µM.
Experiment [4] has the same target. In words: Inhibition of mushroom Tyrosinase using L-DOPA as substrate assessed as reduction in oxygen consumption measured after 10 mins.

Regarding `Oc1cc(O)c2c(c1)O[C@H](c1cc(O)c(O)c(O)c1)[C@H](O)C2`, the inhibition result in experiment [1], in experiment [2] and in experiment [3] was “Active” throughout.

For `O=C(O)c1cc(O)c(O)c(O)c1`, the inhibition entry in experiment [1], in experiment [2] and in experiment [3] was “Active” throughout.

On to `O=C(O[C@@H]1Cc2c(O)cc(O)cc2O[C@@H]1c1cc(O)c(O)c(O)c1)c1cc(O)c(O)c(O)c1`, for which the inhibition entry in experiment [1], in experiment [2] and in experiment [3] was “Active” in each case. In addition, the inhibition in experiment [4] stood at 10%.

(Values after ChEMBL document CHEMBL6078627, “Epigallocatechin and epigallocatechin-3-gallate are not inhibitors of tyrosinase” (Bioorg Med Chem Lett, 2024).)
